{"source": "paper PMC5218480", "about": "(PLoS ONE, 2017)", "test_system": "MV-4-11 cells", "assay": "Gene expression microarray analysis (Affymetrix PrimeView) and GSEA", "type": "cell-based, human", "design": "RFU PODN (11730768_x_at) / Fold change /veh PODN (11730768_x_at) / RFU LINC00158 (11744669_a_at) / Fold change /veh LINC00158 (11744669_a_at) / RFU DUSP10 (11751237_a_at) / Fold change /veh DUSP10 (11751237_a_at) / RFU ID3 (11757404_x_at) / Fold change /veh ID3 (11757404_x_at) / RFU PLEKHG5 (11737974_s_at) / Fold change /veh PLEKHG5 (11737974_s_at) / RFU LRRC4B (11730491_at) / Fold change /veh LRRC4B (11730491_at) / RFU GIMAP4 (11747438_a_at) / Fold change /veh GIMAP4 (11747438_a_at) / RFU KRT8 (11758183_x_at) / Fold change /veh KRT8 (11758183_x_at) / RFU CNN1 (11734310_a_at) / Fold change /veh CNN1 (11734310_a_at) / RFU VPS37D (11726825_at) / Fold change /veh VPS37D (11726825_at) / RFU C10orf10 (11716522_x_at) / Fold change /veh C10orf10 (11716522_x_at) / RFU KIR2DL2 /// KIR2DL4 /// KIR2DL5A /// KIR2DL5B /// KIR2DS1 /// KIR2DS2 /// KIR2DS3 /// KIR2DS4 /// KIR3DL3 /// KIR3DL3 /// KIR3DS1 (11738374_at) / Fold change /veh KIR2DL2 /// KIR2DL4 /// KIR2DL5A /// KIR2DL5B /// KIR2DS1 /// KIR2DS2 /// KIR2DS3 /// KIR2DS4 /// KIR3DL3 /// KIR3DL3 /// KIR3DS1 (11738374_at) / RFU C1QL1 (11718748_at) / Fold change /veh C1QL1 (11718748_at) / RFU TMPRSS4 (11747572_a_at) / Fold change /veh TMPRSS4 (11747572_a_at) / RFU HAMP (11756126_x_at) / Fold change /veh HAMP (11756126_x_at) / RFU RNFT2 (11725882_a_at) / Fold change /veh RNFT2 (11725882_a_at) / RFU NR4A2 (11747474_a_at) / Fold change /veh NR4A2 (11747474_a_at) / RFU ABCC12 (11746883_a_at) / Fold change /veh ABCC12 (11746883_a_at) / RFU TMEM136 (11760407_x_at) / Fold change /veh TMEM136 (11760407_x_at) / RFU CLDN22 /// WWC2 (11732394_at) / Fold change /veh CLDN22 /// WWC2 (11732394_at) / RFU HLA-DPB1 (11760878_x_at) / Fold change /veh HLA-DPB1 (11760878_x_at) / RFU SPINT1 (11716480_a_at) / Fold change /veh SPINT1 (11716480_a_at) / RFU GAP43 (11754022_s_at) / Fold change /veh GAP43 (11754022_s_at) / RFU A4GNT (11735810_at) / Fold change /veh A4GNT (11735810_at) / RFU PRB3 (11715151_x_at) / Fold change /veh PRB3 (11715151_x_at) / RFU TUBB4B (11761932_at) / Fold change /veh TUBB4B (11761932_at) / RFU CAPN14 (11732068_a_at) / Fold change /veh CAPN14 (11732068_a_at) / RFU TMCC2 (11721928_a_at) / Fold change /veh TMCC2 (11721928_a_at) / RFU IRGQ (11745062_a_at) / Fold change /veh IRGQ (11745062_a_at) / RFU FAM174B (11720279_a_at) / Fold change /veh FAM174B (11720279_a_at) / RFU TMPRSS4 (11748680_a_at) / Fold change /veh TMPRSS4 (11748680_a_at) / RFU FAM212B (11763350_a_at) / Fold change /veh FAM212B (11763350_a_at) / RFU PLEKHG5 (11743358_a_at) / Fold change /veh PLEKHG5 (11743358_a_at) / RFU ZSCAN30 (11745921_a_at) / Fold change /veh ZSCAN30 (11745921_a_at) / RFU CMKLR1 (11741424_a_at) / Fold change /veh CMKLR1 (11741424_a_at) / RFU LOC101060620 /// MAPK8IP1 (11723275_at) / Fold change /veh LOC101060620 /// MAPK8IP1 (11723275_at) / RFU SPTSSB (11747773_x_at) / Fold change /veh SPTSSB (11747773_x_at) / RFU PRSS12 (11739890_at) / Fold change /veh PRSS12 (11739890_at) / RFU BIN1 (11741810_x_at) / Fold change /veh BIN1 (11741810_x_at) / RFU WNT11 (11732464_a_at) / Fold change /veh WNT11 (11732464_a_at) / RFU C10orf10 (11716521_a_at) / Fold change /veh C10orf10 (11716521_a_at) / RFU C5orf56 (11738089_at) / Fold change /veh C5orf56 (11738089_at) / RFU CYB561 (11721691_x_at) / Fold change /veh CYB561 (11721691_x_at) / RFU ANKRD19P (11752326_a_at) / Fold change /veh ANKRD19P (11752326_a_at) / RFU OR2T12 /// OR2T33 /// OR2T8 (11738714_s_at) / Fold change /veh OR2T12 /// OR2T33 /// OR2T8 (11738714_s_at) / RFU VCAN (11748164_a_at) / Fold change /veh VCAN (11748164_a_at) / RFU JSRP1 (11732532_at) / Fold change /veh JSRP1 (11732532_at) / RFU KRTAP10-11 (11738290_x_at) / Fold change /veh KRTAP10-11 (11738290_x_at) / RFU MYO3A (11730013_a_at) / Fold change /veh MYO3A (11730013_a_at) / RFU EBF3 (11725865_a_at) / Fold change /veh EBF3 (11725865_a_at) / RFU CAMK2N1 (11719241_x_at) / Fold change /veh CAMK2N1 (11719241_x_at) / RFU C5orf56 (11738088_a_at) / Fold change /veh C5orf56 (11738088_a_at) / RFU OLFML3 (11715873_a_at) / Fold change /veh OLFML3 (11715873_a_at) / RFU LOC100653217 /// NTM (11731650_a_at) / Fold change /veh LOC100653217 /// NTM (11731650_a_at) / RFU MAPK11 (11762145_a_at) / Fold change /veh MAPK11 (11762145_a_at) / RFU FIZ1 (11724087_x_at) / Fold change /veh FIZ1 (11724087_x_at) / RFU OASL (11726364_x_at) / Fold change /veh OASL (11726364_x_at) / RFU SOX15 (11748057_x_at) / Fold change /veh SOX15 (11748057_x_at) / RFU CD79A (11719716_a_at) / Fold change /veh CD79A (11719716_a_at) / RFU HIST1H1D (11736915_at) / Fold change /veh HIST1H1D (11736915_at) / RFU CASKIN2 (11723855_a_at) / Fold change /veh CASKIN2 (11723855_a_at) / RFU LOC730098 (11760151_x_at) / Fold change /veh LOC730098 (11760151_x_at) / RFU OR4N2 (11742367_at) / Fold change /veh OR4N2 (11742367_at) / RFU PRRT2 (11749266_a_at) / Fold change /veh PRRT2 (11749266_a_at) / RFU SNX32 (11753110_a_at) / Fold change /veh SNX32 (11753110_a_at) / RFU CDHR5 (11726645_a_at) / Fold change /veh CDHR5 (11726645_a_at) / RFU RCAN1 (11760418_a_at) / Fold change /veh RCAN1 (11760418_a_at) / RFU FAM167A (11723789_a_at) / Fold change /veh FAM167A (11723789_a_at) / RFU FAM26E (11764081_at) / Fold change /veh FAM26E (11764081_at) / RFU ISYNA1 (11749810_s_at) / Fold change /veh ISYNA1 (11749810_s_at) / RFU ACY1 (11761880_at) / Fold change /veh ACY1 (11761880_at) / RFU 11764098_at / Fold change /veh 11764098_at / RFU SAMD14 (11745864_x_at) / Fold change /veh SAMD14 (11745864_x_at) / RFU NPB (11741838_a_at) / Fold change /veh NPB (11741838_a_at) / RFU TMPRSS6 (11731388_a_at) / Fold change /veh TMPRSS6 (11731388_a_at) / RFU KRTAP10-2 (11738614_at) / Fold change /veh KRTAP10-2 (11738614_at) / RFU ARHGAP8 /// PRR5-ARHGAP8 (11727945_x_at) / Fold change /veh ARHGAP8 /// PRR5-ARHGAP8 (11727945_x_at) / RFU KRTAP5-7 /// NADSYN1 (11734609_at) / Fold change /veh KRTAP5-7 /// NADSYN1 (11734609_at) / RFU RASL12 (11751679_a_at) / Fold change /veh RASL12 (11751679_a_at) / RFU CDKN2B (11736163_a_at) / Fold change /veh CDKN2B (11736163_a_at) / RFU PRF1 (11729649_at) / Fold change /veh PRF1 (11729649_at) / RFU, ZNF638 /// ZNF638-IT1 / Fold change vs veh, ZNF638 /// ZNF638-IT1 / RFU, PANK3 / Fold change vs veh, PANK3 / RFU, SH3YL1 / Fold change vs veh, SH3YL1 / RFU, ZEB2 / Fold change vs veh, ZEB2 / RFU, NRIP1 / Fold change vs veh, NRIP1 / RFU, PTTG1IP / Fold change vs veh, PTTG1IP / RFU, CAPN2 / Fold change vs veh, CAPN2 / RFU, MED14 / Fold change vs veh, MED14 / RFU, SNORA58 / Fold change vs veh, SNORA58 / RFU, C1orf63 / Fold change vs veh, C1orf63 / RFU, LRRFIP1 / Fold change vs veh, LRRFIP1 / RFU, NDUFAF7 / Fold change vs veh, NDUFAF7 / RFU, SLC12A2 / Fold change vs veh, SLC12A2 / RFU, IBTK / Fold change vs veh, IBTK / RFU, ESF1 / Fold change vs veh, ESF1 / Fold change vs veh, TMEM50B / RFU, TAOK1 / Fold change vs veh, TAOK1 / RFU, ACBD3 / Fold change vs veh, ACBD3 / RFU, TMA16 / Fold change vs veh, TMA16 / RFU, RWDD3 / Fold change vs veh, RWDD3 / RFU, BCAT1 / Fold change vs veh, BCAT1 / RFU, EDEM3 / Fold change vs veh, EDEM3 / RFU, TMEM33 / Fold change vs veh, TMEM33 / RFU, WDR75 / Fold change vs veh, WDR75 / RFU, AHCTF1 / Fold change vs veh, AHCTF1 / RFU, TFRC / Fold change vs veh, TFRC / RFU, ZDHHC17 / Fold change vs veh, ZDHHC17 / RFU, NOM1 / Fold change vs veh, NOM1 / RFU, ARL8B / Fold change vs veh, ARL8B / RFU, ZBTB11 / Fold change vs veh, ZBTB11 / RFU, TAMM41 / Fold change vs veh, TAMM41 / RFU, KIAA1704 /// LOC100996395 / Fold change vs veh, KIAA1704 /// LOC100996395 / RFU, ING1 / Fold change vs veh, ING1 / RFU, TRMT61B / Fold change vs veh, TRMT61B / RFU, FUBP3 / Fold change vs veh, FUBP3 / RFU, TP53 / Fold change vs veh, TP53 / RFU, TNKS2 / Fold change vs veh, TNKS2 / RFU, ZFP14 / Fold change vs veh, ZFP14 / RFU, ACTR2 / Fold change vs veh, ACTR2 / RFU, PPP3R1 / Fold change vs veh, PPP3R1 / RFU, PIK3R1 / Fold change vs veh, PIK3R1 / RFU, HNRNPA1 / Fold change vs veh, HNRNPA1 / RFU, RNF170 / Fold change vs veh, RNF170 / RFU, ZNF28 / Fold change vs veh, ZNF28 / RFU, RNGTT / Fold change vs veh, RNGTT / RFU, OGT / Fold change vs veh, OGT / RFU, BRD1 / Fold change vs veh, BRD1 / RFU, MARS / Fold change vs veh, MARS / RFU, ZNF655 / Fold change vs veh, ZNF655 / RFU, FAHD1 / Fold change vs veh, FAHD1 / RFU, BDP1 / Fold change vs veh, BDP1 / RFU, LRRCC1 / Fold change vs veh, LRRCC1 / RFU, ARID1A / Fold change vs veh, ARID1A / RFU, ZNF146 / Fold change vs veh, ZNF146 / RFU, ZNF330 / Fold change vs veh, ZNF330 / RFU, GPN3 / Fold change vs veh, GPN3 / RFU, C9orf123 / Fold change vs veh, C9orf123 / RFU, N4BP2L2 / Fold change vs veh, N4BP2L2 / RFU, ARFIP1 / Fold change vs veh, ARFIP1 / RFU, FAM179B / Fold change vs veh, FAM179B / RFU, BCL10 / Fold change vs veh, BCL10 / RFU, UHRF1BP1L / Fold change vs veh, UHRF1BP1L / RFU, BET1 / Fold change vs veh, BET1 / RFU, CNOT2 / Fold change vs veh, CNOT2 / RFU, ZNF268 / Fold change vs veh, ZNF268 / Fold change vs veh, ZNF507 / RFU, DGCR2 / Fold change vs veh, DGCR2 / RFU, WDSUB1 / Fold change vs veh, WDSUB1 / Fold change vs veh, HSP90B1 /// MIR3652 / RFU, ADSS / Fold change vs veh, ADSS / RFU, GK / Fold change vs veh, GK / RFU, ZNF148 / Fold change vs veh, ZNF148 / RFU, TAF9 / Fold change vs veh, TAF9 / RFU, SLC1A5 / Fold change vs veh, SLC1A5 / RFU, SLMO2 / Fold change vs veh, SLMO2 / RFU, ABCC4 / Fold change vs veh, ABCC4 / RFU, LOC101060439 /// RAP1B / Fold change vs veh, LOC101060439 /// RAP1B / RFU, RFX7 / Fold change vs veh, RFX7 / RFU, GTPBP10 / Fold change vs veh, GTPBP10 / RFU, CNEP1R1 / Fold change vs veh, CNEP1R1 / RFU, BIVM-ERCC5 /// ERCC5 / Fold change vs veh, BIVM-ERCC5 /// ERCC5 / RFU, ILF3 / Fold change vs veh, ILF3 / RFU 11762660_at / Fold change /veh 11762660_at / RFU VCAN (11757783_s_at) / Fold change /veh VCAN (11757783_s_at) / RFU DDX43 (11728927_at) / Fold change /veh DDX43 (11728927_at) / RFU KRT8 (11758188_x_at) / Fold change /veh KRT8 (11758188_x_at) / RFU NKD1 (11759106_at) / Fold change /veh NKD1 (11759106_at) / RFU SRD5A1 (11742802_a_at) / Fold change /veh SRD5A1 (11742802_a_at) / RFU TPSAB1 /// TPSB2 (11721975_s_at) / Fold change /veh TPSAB1 /// TPSB2 (11721975_s_at) / RFU GSTM3 (11746129_a_at) / Fold change /veh GSTM3 (11746129_a_at) / RFU IL23R (11737362_x_at) / Fold change /veh IL23R (11737362_x_at) / RFU TMEM51 (11727254_a_at) / Fold change /veh TMEM51 (11727254_a_at) / RFU PIWIL2 (11732686_x_at) / Fold change /veh PIWIL2 (11732686_x_at) / RFU ORM1 (11744905_x_at) / Fold change /veh ORM1 (11744905_x_at) / RFU CCDC152 (11743942_at) / Fold change /veh CCDC152 (11743942_at) / RFU ECM1 (11717891_a_at) / Fold change /veh ECM1 (11717891_a_at) / RFU IL23R (11748794_a_at) / Fold change /veh IL23R (11748794_a_at) / RFU TNFAIP8L3 (11732012_x_at) / Fold change /veh TNFAIP8L3 (11732012_x_at) / RFU MBOAT4 (11741988_at) / Fold change /veh MBOAT4 (11741988_at) / RFU 11764193_at / Fold change /veh 11764193_at / RFU TMEM53 (11763286_at) / Fold change /veh TMEM53 (11763286_at) / RFU MAGEB2 (11727129_at) / Fold change /veh MAGEB2 (11727129_at) / RFU TMEM200A (11744735_a_at) / Fold change /veh TMEM200A (11744735_a_at) / RFU CCDC152 (11751479_a_at) / Fold change /veh CCDC152 (11751479_a_at) / RFU FAM211A (11726209_a_at) / Fold change /veh FAM211A (11726209_a_at) / RFU RGS16 (11746705_a_at) / Fold change /veh RGS16 (11746705_a_at) / RFU VCAN (11755009_s_at) / Fold change /veh VCAN (11755009_s_at) / RFU RHOB (11743442_s_at) / Fold change /veh RHOB (11743442_s_at) / RFU RGS16 (11720943_a_at) / Fold change /veh RGS16 (11720943_a_at) / RFU RGS16 (11720944_at) / Fold change /veh RGS16 (11720944_at) / RFU, VPS4B / Fold change vs veh, VPS4B / RFU, CREB1 / Fold change vs veh, CREB1 / RFU, DNAJC13 / Fold change vs veh, DNAJC13 / RFU, GNAQ / Fold change vs veh, GNAQ / RFU, CDK5R1 / Fold change vs veh, CDK5R1 / RFU, ZRANB3 / Fold change vs veh, ZRANB3 / RFU, CUL4A / Fold change vs veh, CUL4A / RFU, CCNY / Fold change vs veh, CCNY / RFU, UFL1 / Fold change vs veh, UFL1 / RFU, COG3 / Fold change vs veh, COG3 / RFU, DIAPH2 / Fold change vs veh, DIAPH2 / RFU, SKA2 / Fold change vs veh, SKA2 / RFU, AFF3 / Fold change vs veh, AFF3 / RFU, LMF1 / Fold change vs veh, LMF1 / RFU, IPO11 / Fold change vs veh, IPO11 / RFU, DFFB / Fold change vs veh, DFFB / RFU, FOXP1 / Fold change vs veh, FOXP1 / RFU, CARD8 / Fold change vs veh, CARD8 / RFU, STRN3 / Fold change vs veh, STRN3 / RFU, ADK / Fold change vs veh, ADK / RFU, RASSF2 / Fold change vs veh, RASSF2 / RFU, WIPF1 / Fold change vs veh, WIPF1 / RFU, LARP1B / Fold change vs veh, LARP1B / RFU, RASA1 / Fold change vs veh, RASA1 / RFU, RB1 / Fold change vs veh, RB1 / RFU, PPFIA1 / Fold change vs veh, PPFIA1 / RFU, MAT2A / Fold change vs veh, MAT2A / RFU, CCT5 / Fold change vs veh, CCT5 / RFU, WDR92 / Fold change vs veh, WDR92 / RFU, CUX1 / Fold change vs veh, CUX1 / RFU, TTC7A / Fold change vs veh, TTC7A / RFU, TMEM135 / Fold change vs veh, TMEM135 / RFU, DEPTOR / Fold change vs veh, DEPTOR / RFU, CPM / Fold change vs veh, CPM / RFU, DNAJB6 / Fold change vs veh, DNAJB6 / RFU, CACNA2D3 / Fold change vs veh, CACNA2D3 / RFU, DTX4 / Fold change vs veh, DTX4 / RFU, TFCP2 / Fold change vs veh, TFCP2 / RFU, GMCL1 /// GMCL1P1 / Fold change vs veh, GMCL1 /// GMCL1P1 / RFU, AEBP2 / Fold change vs veh, AEBP2 / RFU, SNHG1 /// SNORD22 /// SNORD25 /// SNORD26 /// SNORD27 /// SNORD28 /// SNORD29 /// SNORD31 / Fold change vs veh, SNHG1 /// SNORD22 /// SNORD25 /// SNORD26 /// SNORD27 /// SNORD28 /// SNORD29 /// SNORD31 / Fold change (Aza/veh), C12orf56 (ProbeSet 11735607_a_at) / Fold change (ACY-1035/veh), C12orf56 (ProbeSet 11735607_a_at) / Fold change (Aza/veh), FGFR1OP (ProbeSet 11751329_s_at) / Fold change (ACY-1035/veh), FGFR1OP (ProbeSet 11751329_s_at) / Fold change (Aza/veh), VPS36 (ProbeSet 11739960_a_at) / Fold change (ACY-1035/veh), VPS36 (ProbeSet 11739960_a_at) / RFU SYPL1 (11715823_x_at) / Fold change /veh SYPL1 (11715823_x_at) / RFU IGFBP7 (11715501_s_at) / Fold change /veh IGFBP7 (11715501_s_at) / RFU REEP3 (11722064_at) / Fold change /veh REEP3 (11722064_at) / RFU IGLL1 (11728026_x_at) / Fold change /veh IGLL1 (11728026_x_at): dose or concentration left out as unconfirmed", "conditions": "MV-4-11 cells, 48 hours"}
{"smiles": "Nc1ccc(-c2cccs2)cc1NC(=O)c1ccc2c(c1)cc(C1CC1)n2CCN1CCOCC1", "note": "[ACY-1035]", "values": [{"measurement": "Fold change /veh ANKRD19P (11752326_a_at)", "result": 1.02}]}
